Results on one molecule are retold here after US9120793B2, “Triazolo-pyridine compound” (Eli Lilly and Company, priority 2013, dated 2015).

Common to all, as to type: cell-based
Assay [1] deals with T1, PPARα (Homo sapiens, UniProt Q07869).
T1 construct: expressed in transfected cells; host or cells: CV1 (African green monkey kidney)
T1 sequence (Q07869 239-466 limits assumed): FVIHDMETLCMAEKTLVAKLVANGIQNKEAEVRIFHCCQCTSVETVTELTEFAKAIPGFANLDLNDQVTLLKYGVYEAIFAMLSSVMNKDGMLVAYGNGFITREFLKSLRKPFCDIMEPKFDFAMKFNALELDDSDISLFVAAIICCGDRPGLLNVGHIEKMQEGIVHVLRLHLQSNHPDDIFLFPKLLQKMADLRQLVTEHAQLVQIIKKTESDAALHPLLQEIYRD
Put plainly: PPARα reporter (CTF)/functional assay in CV1 cells. The note with it: examined up to 10 μM; efficacy <20% considered negative. The text has this:
Because GPR-40 is known to be activated by ligands to PPARγ, exemplified compounds are examined in PPARα, PPARδ, and PPARγ reporter assays to determine the selectivity of an exemplified compound. CV1 cells, which are derived from the renal tissue of an African green monkey, are transfected with various receptor and reporter plasmids using Fugene. For the PPARα and PPARδ assays, a reporter plasmid containing five tandem copies of the yeast transcription protein Gal4 response element, cloned upstream of a firefly luciferase gene driven by the major late promoter of adenovirus, is transfected together with a Simian Virus 40 (SV40) driven plasmid constitutively expressing a hybrid protein containing the Gal4 DNA binding domain (DBD), and either the PPARα or PPARδ ligand binding domain. For the PPARγ assay, plasmids encoding PPARγ and RXRα, both driven by a cytomegalovirus (CMV) promoter are transfected together with a plasmid containing luciferase reporter cDNA driven by the TK promoter and a receptor response element (2×PPRE). […] After 24 hours incubation with compound, cells are lysed and luciferase activity is determined as a measure of receptor activation by luminescence. […] The maximum percent stimulation is determined versus maximum stimulation obtained with 10 μM of an appropriate PPAR agonist reference compound. […]

The target in assay [2] is T2, hGPR-40 (hFFAR1) (Homo sapiens, UniProt O14842).
T2 construct: host or cells: HEK293
T2 sequence (O14842 whole entry): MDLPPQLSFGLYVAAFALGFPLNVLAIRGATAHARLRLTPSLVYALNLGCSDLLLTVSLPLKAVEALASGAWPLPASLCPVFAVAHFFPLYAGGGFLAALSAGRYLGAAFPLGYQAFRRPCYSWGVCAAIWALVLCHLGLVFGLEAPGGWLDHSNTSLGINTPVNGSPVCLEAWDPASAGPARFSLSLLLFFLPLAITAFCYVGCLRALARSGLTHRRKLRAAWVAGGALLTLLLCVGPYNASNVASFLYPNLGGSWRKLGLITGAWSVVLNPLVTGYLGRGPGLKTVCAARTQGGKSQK
T2 sequence (P32121 whole entry partner): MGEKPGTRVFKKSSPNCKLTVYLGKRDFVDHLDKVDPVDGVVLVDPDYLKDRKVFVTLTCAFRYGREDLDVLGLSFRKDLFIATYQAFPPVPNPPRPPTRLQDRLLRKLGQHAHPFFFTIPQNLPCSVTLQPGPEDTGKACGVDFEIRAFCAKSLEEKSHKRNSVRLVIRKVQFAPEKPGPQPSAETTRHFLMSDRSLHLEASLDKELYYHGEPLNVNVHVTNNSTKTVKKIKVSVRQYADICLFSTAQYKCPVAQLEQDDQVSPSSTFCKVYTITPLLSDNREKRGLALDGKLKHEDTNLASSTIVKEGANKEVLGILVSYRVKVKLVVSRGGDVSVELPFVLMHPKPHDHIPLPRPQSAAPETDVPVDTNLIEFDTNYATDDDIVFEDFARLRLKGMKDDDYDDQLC
Put plainly: Human beta-arrestin agonist assay with 1% FBS. The text has this:
(§1) Human embryonic kidney (hEK293)-hFFAR1 cells are purchased from DiscoveRx™. Human osteosarcoma (U2OS) cells expressing mFFAR1 are developed by DiscoveRX™. These cells co-express the Prolink™ (PK)-tagged GPR-40 and the Enzyme Acceptor™ (EA)-tagged beta-arrestin fusion proteins. If activation of the GPR-40 stimulates beta-arrestin recruitment, it would force complementation of the beta galactosidase (B-gal) enzyme fragments, forming a B-gal enzyme that generates a chemiluminescent signal using the DiscoveRx PathHunter™ detection kit. Cells are incubated overnight at 5,000 cells/well in 384 well plates in culture media containing 1% FBS (fetal bovine serum). Serial diluted compound in DMSO (2× dilutions to generate 20 concentrations) are step down diluted in culture media containing 1% FBS (fetal bovine serum) and added to cells with a final top concentration starting of 100 μM. After addition of compound, cells are incubated for 90 min at 37° C. in 5% CO2 incubator, and DiscoveRX™ kit detection reagents are added. Measurement of the chemiluminescent signal is ascertained with the Envision™ reader, after a 1-hour incubation at room temperature. Data are fit to a 4 parameter-fit logistics to determine EC50 values, % activity is measured versus maximum response to an internal standard GPR-40 agonist at 1 μM.

Assay [3] has as its target T3, human GPR-40 (Homo sapiens, UniProt O14842).
T3 construct: expressed in transfected cells; host or cells: HEK293
Put plainly: Calcium Flux Primary Assay. Here is the method:
HEK293 cells over expressing the human GPR-40 cDNA maintained in Dulbecco's modified Eagle's medium with F12 medium in 3:1 ratio supplemented with 10% FBS and 800 μg/ml geneticin at 37° C. and 5% CO2 are employed for the study. Agonist assays are performed using a Calcium 4 Dye assay kit (Molecular Devices) in the presence or absence of 0.1% fatty acid free BSA in the assay buffer (1×HBSS (Hank's Balanced Salt Solution) & 20 mM HEPES (4-(2-hydroxyethyl)-1-piperazineethanesulfonic acid). Receptor activation is measured as an increase in intracellular calcium using the Fluorometric Imaging Plate Reader (FLIPR). Maximum change in fluorescence over the base line is used to determine the agonist response. The EC50 value of the compound is calculated using Excel Fit software (version 4; IDBS) by plotting concentration vs relative fluorescence units (RFUs). […] (Mean±SEM; SEM=standard error of the mean.)

Assay [4] has as its target T4, mGPR-40 (mFFAR1) (Mus musculus, UniProt Q76JU9).
T4 construct: host or cells: U2OS
Put plainly: Mouse beta-arrestin agonist assay with 1% FBS.
Excerpt: as §1

The mark [5] stands for this setting: versus internal standard GPR-40 agonist at 1 μM.

T3 sequence (O14842 whole entry): as the sequence (O14842 whole entry) above
T4 sequence (Q76JU9 whole entry): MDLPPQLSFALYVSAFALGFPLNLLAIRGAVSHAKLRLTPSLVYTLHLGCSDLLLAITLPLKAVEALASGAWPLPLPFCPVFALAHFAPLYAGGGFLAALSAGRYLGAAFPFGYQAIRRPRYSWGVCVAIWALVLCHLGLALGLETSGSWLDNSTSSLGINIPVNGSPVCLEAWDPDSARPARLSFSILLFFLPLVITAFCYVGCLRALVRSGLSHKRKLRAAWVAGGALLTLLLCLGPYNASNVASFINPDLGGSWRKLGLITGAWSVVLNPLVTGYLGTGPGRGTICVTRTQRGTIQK
T4 sequence (P32121 whole entry partner): as the sequence (P32121 whole entry partner) above

As usually defined, the EC50 is the concentration at which the effect is half-maximal. With `CC#C[C@@H](CC(=O)O)c1ccc(OCc2ccc3nc(-c4c(C)cccc4C)nn3c2)cc1` [Example 1, (3S)-3-[4-[[2-(2,6-Dimethylphenyl)-[1,2,4]triazolo[1,5-a]pyridin-6-yl]methoxy]phenyl]hex-4-ynoic acid], the “functional activation of PPARα” value in assay [1] was “No functional activation”. Further, the concentration for a half-maximal effect (EC50) was determined as 44.8 nM in assay [2] (hEK293-hFFAR1 cells, 1% FBS, 90 min, read-out: hGPR-40 b-arrestin EC50); 119 nM in assay [3] (HEK293 cells over expressing human GPR-40, intracellular calcium, FLIPR); 3.63 nM in assay [4] (U2OS cells expressing mFFAR1, 1% FBS, 90 min, read-out: mGPR-40 b-arrestin EC50). The “hGPR-40 b-arrestin % stimulation max (FA)” value in assay [2] (setting [5]) worked out at 128%. The efficacy in assay [3] (maximal response compared to natural ligand linoleic acid) is recorded as 76%. The “mGPR-40 b-arrestin % stimulation max (FA)” value in assay [4] (setting [5]) amounted to 153%.
